# Source: patent US20180057505A1, “BICYCLIC HETEROARYL COMPOUNDS USEFUL AS INHIBITORS OF THE PAR-2 SIGNALING PATHWAY” (VERTEX PHARMACEUTICALS INCORPORATED, priority 2015, published 2018)
# pIC50: −log10 of the molar value.
# Experiments:
# Assay type in all cases: cell-based
# [1] = target: T1, PAR2 (HT-29 cells) (Homo sapiens, UniProt P55085); test: Ca FLIPR TETRA assay, ANTAGONIST mode, activator 3.1 U/mL trypsin; conditions: HT-29 cells, activator 3.1 U/mL trypsin; maximal antagonist concentration per Method (A: 0.1, 1 or 2 μM; B: 50 μM)
# T1 construct: host or cells: HT-29
# T1 sequence (P55085 26-397): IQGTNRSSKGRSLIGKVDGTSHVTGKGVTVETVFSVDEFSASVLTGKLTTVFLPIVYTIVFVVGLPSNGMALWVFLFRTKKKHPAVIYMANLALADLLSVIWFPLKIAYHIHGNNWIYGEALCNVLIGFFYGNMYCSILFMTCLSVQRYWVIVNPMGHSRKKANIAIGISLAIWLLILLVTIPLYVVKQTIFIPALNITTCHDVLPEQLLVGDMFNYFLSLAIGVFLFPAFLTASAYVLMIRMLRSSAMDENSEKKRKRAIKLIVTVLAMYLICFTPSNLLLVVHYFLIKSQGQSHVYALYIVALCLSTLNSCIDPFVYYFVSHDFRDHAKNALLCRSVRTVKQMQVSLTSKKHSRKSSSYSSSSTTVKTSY
# Procedure, shortened: (§1)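 Inhibition of agonist-evoked calcium signals was measured in human HT-29 colon cells cultured overnight in 1% FBS McCoy's medium. Test compounds preincubated 30 min at r.t.; activators at final concentrations as stated for each readout.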
# [2] = target: T1, PAR2 (HT-29 cells); test: Ca FLIPR TETRA assay, ANTAGONIST mode, activator 8 μM SLIGKV; conditions: HT-29 cells, activator 8 μM SLIGKV; maximal antagonist concentration per Method (A: 0.1, 1 or 2 μM; B: 50 μM)
# Procedure, shortened: as §1
# [3] = system: Thrombin-stimulated Ca2+ response in HT-29 cells; test: Ca FLIPR TETRA assay, ANTAGONIST mode, activator 1 U/mL Thrombin; conditions: HT-29 cells, activator 1 U/mL Thrombin
# Procedure, shortened: as §1
# [4] = system: UTP-stimulated Ca2+ response in HT-29 cells; test: Ca FLIPR TETRA assay, ANTAGONIST mode, activator 0.6 μM UTP; conditions: HT-29 cells, activator 0.6 μM UTP
# Procedure, shortened: as §1
SMILES,pIC50 [1],pIC50 [2],pIC50 [3],pIC50 [4],pIC50 ([3]; Homo sapiens),pIC50 ([4]; Homo sapiens)
CC(C)(C)c1cc(C2CCC(F)(F)CC2)nc2cc(C(=O)N3CCN(C(=O)C4CC(O)(C(F)(F)F)C4)C(=O)C3(C)C)oc12 (stereo not drawn) [Example I-224],8.48,8.64,< 5.70,< 5.70,,
CC(C)(C)c1cc(C2CCC(F)(F)CC2)nc2cc(C(=O)N3CCN(C(=O)[C@H]4CC[C@@H](O)CC4)CC3(C)C)oc12 [Example I-225],7.62,7.89,,,< 5.70,< 5.70
CNS(=O)(=O)CCC(=O)N1CCN(C(=O)c2cc3nc(C4CCC(F)(F)CC4)cc(C(C)(C)C)c3o2)C(C)(C)C1 [Example I-226],6.64,7.12,,,< 5.70,< 5.70
Cc1n[nH]c(C(=O)N2CCN(C(=O)c3cc4nc(C5CCC(C)(C)CC5)cc(C(C)(C)C)c4o3)C(C)(C)C2)n1 [Example I-227],8.92,9.10,,,< 5.70,< 5.70
CC1(C)CCC(c2cc(C(C)(C)C)c3oc(C(=O)N4CCN(C(=O)[C@H]5C[C@@](C)(O)C5)CC4(C)C)cc3n2)CC1 [Example I-228],8.85,9.05,,,< 5.70,< 5.70
CC(C)(C)c1cc(C2CCC(F)(F)CC2)nc2cc(C(=O)N3CCN(C(=O)[C@H]4CC[C@@H](C(=O)O)CC4)CC3(C)C)oc12 [Example I-229],7.55,7.62,,,< 5.70,< 5.70
CC(C)(C)c1cc(C2CCC(F)(F)CC2)nc2cc(C(=O)N3CCN(C(=O)c4cnccn4)CC3(C)C)oc12 [Example I-230],6.82,7.09,,,< 5.70,< 5.70
CC(C)(C)c1cc(C2CCC(F)(F)CC2)nc2cc(C(=O)N3CCN(C(=O)c4ncccn4)CC3(C)C)oc12 [Example I-231],6.80,7.08,,,< 5.70,< 5.70
CC(C)(C)c1cc(C2CCC(F)(F)CC2)nc2cc(C(=O)N3CCN(C(=O)CCS(C)(=O)=O)CC3(C)C)oc12 [Example I-232],6.70,6.67,,,< 5.70,< 5.70
CCC(CC)c1cc(-c2ccc(F)cc2)nc2cc(C(=O)N3CCNC(=O)C3(C)C)oc12 [Example I-233],8.09,8.21,,,< 5.70,< 5.70
CC(C)(C)c1cc(C2CCC(F)(F)CC2)nc2cc(C(=O)N3CCN(C(=O)[C@H]4C[C@@](C)(O)C4)CC3(C)C)oc12 [Example I-234],7.42,7.66,,,< 5.70,< 5.70
CC(C)(C)c1cc(-c2ccc(F)cc2)nc2cc(C(=O)N3CCN(c4ccn[nH]4)C(=O)C3(C)C)oc12 [Example I-235],8.03,8.25,,,< 5.70,< 5.70
CN1CCN(C(=O)c2cc3nc(-c4ccc(Cl)cc4)cc(C(C)(C)C)c3o2)C(C)(C)C1=O [Example I-236],8.30,8.46,,,< 5.70,< 5.70
[2H]C([2H])([2H])N1CCN(C(=O)c2cc3nc(-c4ccc(Cl)c(F)c4)cc(C(C)(C)C)c3o2)C(C)(C)C1=O [Example I-237],8.62,8.74,,,< 5.70,< 5.70
[2H]C([2H])([2H])N1CCN(C(=O)c2cc3nc(-c4cccc(Cl)c4)cc(C(C)(C)C)c3o2)C(C)(C)C1=O [Example I-238],7.55,7.74,,,< 5.70,< 5.70
[2H]C([2H])([2H])N1CCN(C(=O)c2cc3nc(-c4ccc(F)c(Cl)c4)cc(C(C)(C)C)c3o2)C(C)(C)C1=O [Example I-239],8.27,8.21,,,< 5.70,< 5.70
[2H]C([2H])([2H])N1CCN(C(=O)c2cc3nc(-c4ccc(Cl)cc4)cc(C(C)(C)C)c3o2)C(C)(C)C1=O [Example I-240],8.74,8.57,,,< 5.70,< 5.70

# Other lines, results leading:
pIC50 [1],pIC50 [2],pIC50 [3],pIC50 [4],pIC50 ([3]; Homo sapiens),pIC50 ([4]; Homo sapiens),SMILES
8.80,8.77,,,< 5.70,< 5.70,CN1CCN(C(=O)c2cc3nc(-c4ccc(Cl)c(F)c4)cc(C(C)(C)C)c3o2)C(C)(C)C1=O [Example I-241]
7.62,7.72,,,< 5.70,< 5.70,CN1CCN(C(=O)c2cc3nc(-c4cccc(Cl)c4)cc(C(C)(C)C)c3o2)C(C)(C)C1=O [Example I-242]
8.13,8.40,,,< 5.70,< 5.70,CN1CCN(C(=O)c2cc3nc(-c4ccc(F)c(Cl)c4)cc(C(C)(C)C)c3o2)C(C)(C)C1=O [Example I-243]
7.57,7.72,,,< 5.70,< 5.70,CC(C)(C)c1cc(-c2cccc(Cl)c2)nc2cc(C(=O)N3CCNC(=O)C3(C)C)oc12 [Example I-244]
8.32,8.60,,,< 5.70,< 5.70,CC[C@@H](C)c1cc(-c2ccc(F)cc2)nc2cc(C(=O)N3CCNC(=O)C3(C)C)oc12 [Example I-245]
7.80,7.96,,,< 5.70,< 5.70,CC[C@H](C)c1cc(-c2ccc(F)cc2)nc2cc(C(=O)N3CCNC(=O)C3(C)C)oc12 [Example I-246]
7.70,7.92,,,< 5.70,< 5.70,Cc1cn[nH]c1N1CCN(C(=O)c2cc3nc(-c4ccc(F)cc4)cc(C(C)(C)C)c3o2)C(C)(C)C1=O [Example I-247]
7.39,7.96,,,< 5.70,< 5.70,Cc1cc(N2CCN(C(=O)c3cc4nc(-c5ccc(F)cc5)cc(C(C)(C)C)c4o3)C(C)(C)C2=O)[nH]n1 [Example I-248]
7.96,8.40,,,< 5.70,< 5.70,CCCC(CC)c1cc(-c2ccc(F)cc2)nc2cc(C(=O)N3CCNC(=O)C3(C)C)oc12 (stereo not drawn) [Example I-249]
7.29,7.82,,,< 5.70,< 5.70,Cc1n[nH]cc1N1CCN(C(=O)c2cc3nc(-c4ccc(F)cc4)cc(C(C)(C)C)c3o2)C(C)(C)C1=O [Example I-250]
< 5.70,< 5.70,< 5.70,< 5.70,,,CC1(C)CCC(c2cc(-c3ccc(F)cc3)nc3cc(C(=O)N4CCNC(=O)C4(C)C)oc23)CC1 [Example I-251]
6.85,6.92,,,< 5.70,< 5.70,CC(C)(C)c1cc(-c2ccc(Cl)c(F)c2)nc2cc(C(=O)N3CCN(C(=O)c4ccc(C(=O)O)nc4)CC3(C)C)oc12 [Example I-252]
8.02,8.46,,,< 5.70,< 5.70,"CC(C)(C)c1cc(-c2ccc(Cl)c(F)c2)nc2cc(C(=O)N3CCN(c4cccc(C(=O)O[C@@H]5OC(C(=O)O)[C@@H](O)C(O)[C@@H]5O)n4)CC3(C)C)oc12 (stereo partly drawn) [Example I-253, (3S,5S,6S)-6-[6-[4-[7-tert-butyl-5-(4-chloro-3-fluoro-phenyl)furo[3,2-b]pyridine-2-carbonyl]-3,3-dimethyl-piperazin-1-yl]pyridine-2-carbonyl]oxy-3,4,5-trihydroxy-tetrahydropyran-2-carboxylic acid]"
7.70,8.07,,,< 5.70,< 5.70,CC1(C)CCC(c2cc(C(C)(C)C)c3oc(C(=O)N4CCN(C(=O)C5CCC(C(=O)O)O5)CC4(C)C)cc3n2)CC1 (stereo not drawn) [Example I-254]
7.89,7.96,,,< 5.70,< 5.70,CC(C)(C)c1cc(-c2ccc(Cl)c(F)c2)nc2cc(C(=O)N3CCN(C(=O)C4CCC(C(=O)O)O4)CC3(C)C)oc12 (stereo not drawn) [Example I-255]
7.51,7.66,,,< 5.70,< 5.70,CC(C)(C)c1cc(-c2ccc(Cl)cc2)nc2cc(C(=O)N3CCN(C(=O)C4CCC(C(=O)O)O4)CC3(C)C)oc12 (stereo not drawn) [Example I-256]
6.74,6.68,< 5.70,< 5.70,,,CC(C)(C)c1cc(-c2ccc(Cl)c(F)c2)nc2cc(C(=O)N3CCN(C(=O)c4cccnc4)CC3(C)C)oc12 [Example I-257]
7.77,7.64,,,< 5.70,< 5.70,CC1(C)CCC(c2cc(C(C)(C)C)c3oc(C(=O)N4CCN(c5cn[nH]c5)CC4(C)C)cc3n2)CC1 [Example I-258]
8.10,8.10,,,< 5.70,< 5.70,CC(C)(C)c1cc(-c2ccc(Cl)c(F)c2)nc2cc(C(=O)N3CCN(c4cn[nH]c4)CC3(C)C)oc12 [Example I-259]
